Results as given in DBAASP.
In brackets after ≈: the same amount, converted by molar mass. One block for each molecule: values may come before it.

Assays:
Assay in all cases: ≥ marks a high value that may be exact or a test limit, other limits are often not marked, values filed in µg/mL are converted to µM
[1] = test system: Acinetobacter baumannii
[2] = test system: Escherichia coli ATCC 25922
[3] = test system: Escherichia coli K88
[4] = test system: Escherichia coli K99
[5] = test system: Escherichia coli UB1005
[6] = test system: Escherichia coli
[7] = test system: Klebsiella pneumoniae
[8] = test system: Pseudomonas aeruginosa ATCC 27853
[9] = test system: Pseudomonas aeruginosa CICC 21625
[10] = test system: Pseudomonas aeruginosa CICC 21630
[11] = test system: Pseudomonas aeruginosa PAO1
[12] = test system: Pseudomonas aeruginosa
[13] = test system: Salmonella enterica subsp. enterica serovar Pullorum C79-13
[14] = test system: Salmonella enterica subsp. enterica serovar Typhimurium ATCC 14028
[15] = test system: Salmonella enterica subsp. enterica serovar Typhimurium C77-31
[16] = test system: Acinetobacter baumannii MTCC 9829
[17] = test system: Alcaligenes faecalis MTCC 1937
[18] = test system: Alkalihalobacillus alcalophilus MTCC 860
[19] = test system: Bordetella bronchiseptica MTCC 6837
[20] = test system: Citrobacter freundii MTCC 1658
[21] = test system: Citrobacter koseri MTCC 1657
[22] = test system: Corynebacterium glutamicum MTCC 2679
[23] = test system: Enterococcus faecalis MTCC 439
[24] = test system: Escherichia coli K12 MG1655
[25] = test system: Haemophilus influenzae MTCC 621
[26] = test system: Klebsiella aerogenes MTCC 111
[27] = test system: Klebsiella oxytoca MTCC 2275
[28] = test system: Klebsiella pneumoniae MTCC 7407
[29] = test system: Pluralibacter gergoviae MTCC 3826
[30] = test system: Proteus mirabilis MTCC 3158
[31] = test system: Proteus vulgaris MTCC 1771
[32] = test system: Pseudomonas aeruginosa MTCC 3542
[33] = test system: Salmonella enterica MTCC 9844
[34] = test system: Shigella boydii MTCC 11947
[35] = test system: Shigella flexneri MTCC 1457
[36] = test system: Staphylococcus aureus MTCC 3160
[37] = test system: Staphylococcus haemolyticus MTCC 3383
[38] = test system: Stenotrophomonas maltophilia MTCC 1890
[39] = test system: Vibrio cholerae MTCC 3904
[40] = test system: Candida albicans ATCC 90029
[41] = test system: Candida albicans
[42] = test system: Staphylococcus aureus ATCC 29213
[43] = test system: Staphylococcus aureus
[44] = test system: Escherichia coli CVCC 1515
[45] = test system: Staphylococcus epidermidis ATCC 12228

SMILES: CC(C)C[C@H](NC(=O)[C@@H]1CCCN1C(=O)[C@H](CCCN=C(N)N)NC(=O)[C@H](CC(C)C)NC(=O)[C@H](CC(C)C)NC(=O)[C@@H]1CCCN1C(=O)[C@H](CCCN=C(N)N)NC(=O)[C@H](CC(C)C)NC(=O)[C@H](CC(C)C)NC(=O)[C@@H]1CCCN1C(=O)[C@H](CCCN=C(N)N)NC(=O)[C@H](CC(C)C)NC(=O)[C@H](CC(C)C)NC(=O)[C@@H]1CCCN1C(=O)[C@H](CCCN=C(N)N)NC(=O)[C@H](CC(C)C)NC(=O)[C@H](CC(C)C)NC(=O)[C@@H]1CCCN1C(=O)[C@H](CCCN=C(N)N)NC(=O)[C@@H](N)CC(C)C)C(N)=O [LRPLLRPLLRPLLRPLLRPL]
MIC [1]: 2 µM (≈ 4.83 µg/mL)
MIC [2]: 4 µM (≈ 9.66 µg/mL)
MIC [3]: 2 µM (≈ 4.83 µg/mL)
MIC [4]: 4 µM (≈ 9.66 µg/mL)
MIC [5]: 4 µM (≈ 9.66 µg/mL)
MIC [6]: 4 µM (≈ 9.66 µg/mL)
MIC [7]: 8 µM (≈ 19.3 µg/mL)
MIC [8]: 32 µM (≈ 77.3 µg/mL)
MIC [9]: ≥ 32 µM
MIC [10]: 16 µM (≈ 38.6 µg/mL)
MIC [11]: 32 µM (≈ 77.3 µg/mL)
MIC [12]: 32 µM (≈ 77.3 µg/mL)
MIC [13]: 2 µM (≈ 4.83 µg/mL)
MIC [14]: 4 µM (≈ 9.66 µg/mL)
MIC [15]: 4 µM (≈ 9.66 µg/mL)

SMILES: CC(C)C[C@H](NC(=O)[C@H](Cc1cnc[nH]1)NC(=O)[C@H](CCCN=C(N)N)NC(=O)[C@H](C)NC(=O)[C@H](CCCN=C(N)N)NC(=O)[C@H](Cc1cnc[nH]1)NC(=O)[C@H](C)NC(=O)[C@@H](NC(=O)[C@H](Cc1cnc[nH]1)NC(=O)[C@H](CCCCN)NC(=O)[C@H](CC(C)C)NC(=O)[C@H](CO)NC(=O)[C@H](C)NC(=O)[C@H](CO)NC(=O)[C@H](CC(C)C)NC(=O)[C@@H](N)CCCCN)C(C)C)C(=O)N[C@@H](CO)C(=O)O [KLSASLKHVAHRARHLS]
MIC [16]: ≥ 67 µM
MIC [17]: ≥ 67 µM
MIC [18]: ≥ 67 µM
MIC [19]: ≥ 67 µM
MIC [20]: ≥ 67 µM
MIC [21]: ≥ 67 µM
MIC [22]: ≥ 67 µM
MIC [23]: ≥ 67 µM
MIC [24]: ≥ 67 µM
MIC [25]: ≥ 67 µM
MIC [26]: ≥ 67 µM
MIC [27]: ≥ 67 µM
MIC [28]: ≥ 67 µM
MIC [29]: ≥ 67 µM
MIC [30]: ≥ 67 µM
MIC [31]: ≥ 67 µM
MIC [32]: ≥ 67 µM
MIC [33]: ≥ 67 µM
MIC [14]: > 67 µM
MIC [34]: ≥ 67 µM
MIC [35]: ≥ 67 µM
MIC [36]: ≥ 67 µM
MIC [37]: ≥ 67 µM
MIC [38]: ≥ 67 µM
MIC [39]: ≥ 67 µM

SMILES: CC(C)C[C@H](NC(=O)[C@H](Cc1cnc[nH]1)NC(=O)[C@H](CO)NC(=O)[C@H](C)NC(=O)[C@H](CC(C)C)NC(=O)[C@@H](NC(=O)[C@@H](NC(=O)[C@H](CC(C)C)NC(=O)[C@H](CC(C)C)NC(=O)[C@H](CO)NC(=O)[C@H](Cc1cnc[nH]1)NC(=O)[C@H](CO)NC(=O)[C@H](CC(C)C)NC(=O)[C@H](CC(C)C)NC(=O)[C@H](CCCCN)NC(=O)[C@H](Cc1ccccc1)NC(=O)[C@H](CCCN=C(N)N)NC(=O)[C@@H](N)C(C)C)C(C)C)[C@@H](C)O)C(=O)O [VRFKLLSHSLLVTLASHL]
MIC [40]: 12.3 µM (≈ 25 µg/mL)
MIC [41]: 12.3 µM (≈ 25 µg/mL)
MIC [2]: 3.07 µM (≈ 6.25 µg/mL)
MIC [6]: 6.14 µM (≈ 12.5 µg/mL)
MIC [12]: 3.07 µM (≈ 6.25 µg/mL)
MIC [42]: 6.14 µM (≈ 12.5 µg/mL)
MIC [43]: 3.07 µM (≈ 6.25 µg/mL)

The next lines start with the values.

MIC [1]: 2 µM (≈ 5.79 µg/mL)
MIC [2]: 2 µM (≈ 5.79 µg/mL)
MIC [3]: 2 µM (≈ 5.79 µg/mL)
MIC [4]: 2 µM (≈ 5.79 µg/mL)
MIC [5]: 2 µM (≈ 5.79 µg/mL)
MIC [6]: 2 µM (≈ 5.79 µg/mL)
MIC [7]: 8 µM (≈ 23.2 µg/mL)
MIC [8]: 8 µM (≈ 23.2 µg/mL)
MIC [9]: ≥ 32 µM
MIC [10]: 8 µM (≈ 23.2 µg/mL)
MIC [11]: 4 µM (≈ 11.6 µg/mL)
MIC [12]: 32 µM (≈ 92.6 µg/mL)
MIC [13]: 2 µM (≈ 5.79 µg/mL)
MIC [14]: 4 µM (≈ 11.6 µg/mL)
MIC [15]: 2 µM (≈ 5.79 µg/mL)
SMILES: CC(C)C[C@H](NC(=O)[C@@H]1CCCN1C(=O)[C@H](CCCN=C(N)N)NC(=O)[C@H](CC(C)C)NC(=O)[C@H](CC(C)C)NC(=O)[C@@H]1CCCN1C(=O)[C@H](CCCN=C(N)N)NC(=O)[C@H](CC(C)C)NC(=O)[C@H](CC(C)C)NC(=O)[C@@H]1CCCN1C(=O)[C@H](CCCN=C(N)N)NC(=O)[C@H](CC(C)C)NC(=O)[C@H](CC(C)C)NC(=O)[C@@H]1CCCN1C(=O)[C@H](CCCN=C(N)N)NC(=O)[C@H](CC(C)C)NC(=O)[C@H](CC(C)C)NC(=O)[C@@H]1CCCN1C(=O)[C@H](CCCN=C(N)N)NC(=O)[C@H](CC(C)C)NC(=O)[C@H](CC(C)C)NC(=O)[C@@H]1CCCN1C(=O)[C@H](CCCN=C(N)N)NC(=O)[C@@H](N)CC(C)C)C(N)=O [LRPLLRPLLRPLLRPLLRPLLRPL]

MIC [40]: ≥ 69.8 µM
MIC [41]: > 69.8 µM
MIC [2]: 2.18 µM (≈ 3.12 µg/mL)
MIC [6]: 4.36 µM (≈ 6.25 µg/mL)
MIC [12]: 8.72 µM (≈ 12.5 µg/mL)
MIC [42]: 4.36 µM (≈ 6.25 µg/mL)
MIC [43]: 4.36 µM (≈ 6.25 µg/mL)
SMILES: CC(C)C[C@H](NC(=O)[C@H](CCCN=C(N)N)NC(=O)[C@H](Cc1cnc[nH]1)NC(=O)[C@H](CCCN=C(N)N)NC(=O)[C@H](CC(C)C)NC(=O)[C@H](CC(C)C)NC(=O)[C@@H](N)CCCCN)C(=O)N[C@@H](CC(C)C)C(=O)N[C@H](C(=O)N[C@H](C(=O)N[C@@H](CC(C)C)C(=O)N[C@@H](C)C(=O)O)[C@@H](C)O)C(C)C [KLLRHRLLVTLA]

MIC [2]: 2 µM (≈ 2.85 µg/mL)
MIC [44]: 16 µM (≈ 22.8 µg/mL)
MIC [3]: 8 µM (≈ 11.4 µg/mL)
MIC [5]: 16 µM (≈ 22.8 µg/mL)
MIC [8]: 64 µM (≈ 91.3 µg/mL)
MIC [14]: 32 µM (≈ 45.7 µg/mL)
MIC [42]: 64 µM (≈ 91.3 µg/mL)
MIC [45]: 64 µM (≈ 91.3 µg/mL)
SMILES: CC(C)C[C@H](NC(=O)[C@H](Cc1c[nH]c2ccccc12)NC(=O)[C@H](C)NC(=O)[C@H](CCCCN)NC(=O)[C@H](C)NC(=O)[C@H](C)N)C(=O)N[C@@H](CCCCN)C(=O)N[C@@H](CC(C)C)C(=O)N[C@@H](Cc1c[nH]c2ccccc12)C(=O)N[C@@H](C)C(=O)N[C@@H](CCCCN)C(=O)N[C@@H](C)C(=O)N[C@@H](C)C(N)=O [AAKAWLKLWAKAA]
